Consider 13 molecules from ChEMBL document CHEMBL1151049, “Bis-quinolinium cyclophanes: A novel class of potent blockers of the apamin-sensitive Ca2+-activated K+ channel” (Bioorg Med Chem Lett, 1997).

For assay [1], the species on record is Rattus norvegicus. The assay can be described thus: Equieffective molar ratio (EMR) is ratio of concentrations of compound and dequalinium causing 50% inhibition of the After hyperpolarisation (AHP) in rat sympathetic neurons. In kind it is functional, Sympathetic neuron.
In assay [2] the target is Small conductance calcium-activated potassium channel protein 2 (Rattus norvegicus, UniProt P70604). The assay can be described thus: Inhibitory concentration of compound required for SKCa blocking action was assessed from its ability to inhibit After hyperpolarisation (AHP) in cultured rat sympathetic neurons. In kind it is functional, cell-based, Sympathetic neuron.
Sequence of Small conductance calcium-activated potassium channel protein 2 (P70604 whole entry): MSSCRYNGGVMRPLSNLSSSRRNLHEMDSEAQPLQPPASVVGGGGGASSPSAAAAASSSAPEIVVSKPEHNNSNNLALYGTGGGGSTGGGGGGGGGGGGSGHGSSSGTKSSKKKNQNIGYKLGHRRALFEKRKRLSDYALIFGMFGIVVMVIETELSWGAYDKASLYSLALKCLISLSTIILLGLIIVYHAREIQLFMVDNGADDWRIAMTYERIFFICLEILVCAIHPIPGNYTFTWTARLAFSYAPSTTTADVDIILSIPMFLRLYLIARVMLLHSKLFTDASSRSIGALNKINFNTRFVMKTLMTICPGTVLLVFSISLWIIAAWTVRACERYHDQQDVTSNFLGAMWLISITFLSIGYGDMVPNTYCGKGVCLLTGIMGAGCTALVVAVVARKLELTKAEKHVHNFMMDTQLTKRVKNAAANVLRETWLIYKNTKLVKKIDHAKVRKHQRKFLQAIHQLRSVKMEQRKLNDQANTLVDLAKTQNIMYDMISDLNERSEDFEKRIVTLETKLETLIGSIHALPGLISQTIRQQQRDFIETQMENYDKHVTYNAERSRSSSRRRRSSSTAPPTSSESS

As usually defined, the IC50 is the concentration that gives 50% inhibition. As for `c1ccc2c(c1)c1cc[n+]2Cc2ccc(cc2)Cc2ccc(cc2)C[n+]2ccc(c3ccccc32)NCCCCCCCCCCN1` [UCL-1530], the EMR in assay [1] is reported as 0.16. For the same molecule, in assay [2], the IC50 came to 0.08 µM.
`c1ccc2c(c1)c1cc[n+]2Cc2ccc(cc2)-c2ccc(cc2)C[n+]2ccc(c3ccccc32)NCCCCCCCCCCN1`: in assay [1], the EMR was 0.28. Also, the half-inhibitory concentration (IC50) in assay [2] was 0.17 µM.
For `c1ccc(C[n+]2ccc(NCCCCCCCCCCNc3cc[n+](Cc4ccccc4)c4ccccc34)c3ccccc32)cc1`, in assay [1], the EMR is 1. The half-inhibitory concentration (IC50) in assay [2] amounted to 0.7 µM.
`C1=C\c2ccc(cc2)C[n+]2ccc(c3ccccc32)NCCCCCCCCCCNc2cc[n+](c3ccccc23)Cc2ccc/1cc2`: the EMR in assay [1] is on record as 0.28. Further, in assay [2], the half-inhibitory concentration (IC50) turned out to be 0.15 µM.
As to `c1ccc2c(c1)c1cc[n+]2Cc2ccc(cc2)CCc2ccc(cc2)C[n+]2ccc(c3ccccc32)NCCCCCCCCCCN1`, the EMR in assay [1] was determined as 0.58. In assay [2], the IC50 stood at 0.18 µM.
Regarding `Nc1cc[n+](Cc2ccc(/C=C\c3ccc(C[n+]4ccc(N)c5ccccc54)cc3)cc2)c2ccccc12`, in assay [1], the EMR amounted to 0.24. For the same molecule, in assay [2], the IC50 was determined as 0.19 µM.
`Nc1cc[n+](Cc2ccc(CCc3ccc(C[n+]4ccc(N)c5ccccc54)cc3)cc2)c2ccccc12`: in assay [1], the EMR came out at 0.71. In addition, the IC50 in assay [2] is 0.41 µM.
Consider `Nc1cc[n+](Cc2ccc3c(c2)Cc2cc(C[n+]4ccc(N)c5ccccc54)ccc2-3)c2ccccc12`, for which the EMR in assay [1] is reported as 0.33. In assay [2], the half-maximal inhibitory concentration (IC50) is 0.31 µM.
In the same order, the values of `Nc1cc[n+](Cc2ccc(Cc3ccc(C[n+]4ccc(N)c5ccccc54)cc3)cc2)c2ccccc12` are 0.39 and 0.45 µM.
In the same order, the values of `c1cc2cc(c1)-c1cccc(c1)C[n+]1ccc(c3ccccc31)NCCCCCCCCCCNc1cc[n+](c3ccccc13)C2` are 0.28 and 0.11 µM.
Take `c1ccc2c(c1)c1cc[n+]2Cc2ccc3c(c2)Cc2cc(ccc2-3)C[n+]2ccc(c3ccccc32)NCCCCCCCCCCN1`: the EMR in assay [1] came out at 0.12. In assay [2], the half-inhibitory concentration (IC50) came out at 0.09 µM.
Consider `Nc1cc[n+](Cc2ccc(-c3ccc(C[n+]4ccc(N)c5ccccc54)cc3)cc2)c2ccccc12`, for which the EMR in assay [1] turned out to be 0.4. Besides, the IC50 in assay [2] was determined as 0.38 µM.
With `Nc1cc[n+](Cc2cccc(-c3cccc(C[n+]4ccc(N)c5ccccc54)c3)c2)c2ccccc12`, the EMR in assay [1] came out at 0.55. Besides, the half-inhibitory concentration (IC50) in assay [2] amounted to 0.29 µM.
